Source: patent US20080293712A1, “Benzo[C][2,7]Naphtyridine Derivatives, Methods of Making Thereof and Methods of Use Thereof” (WYETH, priority 2007, published 2008)
Like-named read-outs stand apart in the source and are kept apart here.

Target: T1, PDK-1 (Homo sapiens, UniProt O15530)
T1 sequence (O15530 1-556): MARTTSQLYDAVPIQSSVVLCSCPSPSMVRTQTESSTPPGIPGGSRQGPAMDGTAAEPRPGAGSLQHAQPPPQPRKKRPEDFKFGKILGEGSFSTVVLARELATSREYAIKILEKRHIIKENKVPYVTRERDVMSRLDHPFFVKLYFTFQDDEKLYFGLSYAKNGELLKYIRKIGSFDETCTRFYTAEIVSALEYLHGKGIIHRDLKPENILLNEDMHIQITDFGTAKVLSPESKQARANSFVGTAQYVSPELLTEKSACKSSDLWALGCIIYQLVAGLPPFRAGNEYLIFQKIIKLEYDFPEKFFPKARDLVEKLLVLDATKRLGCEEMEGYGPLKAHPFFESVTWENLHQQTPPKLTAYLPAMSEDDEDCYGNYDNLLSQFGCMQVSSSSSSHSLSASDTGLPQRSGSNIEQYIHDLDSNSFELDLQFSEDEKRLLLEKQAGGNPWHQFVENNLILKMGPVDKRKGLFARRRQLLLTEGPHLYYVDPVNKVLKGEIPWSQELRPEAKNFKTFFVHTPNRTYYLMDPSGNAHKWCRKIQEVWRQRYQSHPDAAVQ
Test: PDK-1 kinase inhibition ELISA assay (phosphorylation of His6-tagged SGK1 S422D by PDK-1)
Type: biochemical

[1] = PDK-1 ELISA, Table 11, read-out: Average IC50

IC50 [1] [nM]	IC50 [nM]	Compound
7	–	COc1cc2ncc3c(N)nc(-c4cncc(OC[C@@H](N)CNC(C)(C)c5ccncc5)c4)cc3c2cc1OC [Ib-108, (2S)-3-{[5-(4-amino-8,9-dimethoxybenzo[c][2,7]naphthyridin-2-yl)pyridin-3-yl]oxy}-N1-(1-methyl-1-pyridin-4-ylethyl)propane-1,2-diamine]
10	–	COc1cc2ncc3c(N)nc(-c4cncc(OC[C@@H](N)COc5ccccc5F)c4)cc3c2cc1OC [Ib-141, 2-(5-{[(2R)-2-amino-3-(2-fluorophenoxy)propyl]oxy}pyridin-3-yl)-8,9-dimethoxybenzo[c][2,7]naphthyridin-4-amine]
40	–	COc1cc2ncc3c(N)nc(-c4cncc(OC[C@@H](N)CNC5CCC(O)CC5)c4)cc3c2cc1OC (stereo partly drawn) [Ib-91, 4-{[(2S)-2-amino-3-{[5-(4-amino-8,9-dimethoxybenzo[c][2,7]naphthyridin-2-yl)pyridin-3-yl]oxy}propyl]amino}cyclohexanol]
53	–	COc1cc2ncc3c(N)nc(-c4cncc(OC[C@@H](N)CNCC5CCCCC5)c4)cc3c2cc1OC [Ib-95, (2S)-3-{[5-(4-amino-8,9-dimethoxybenzo[c][2,7]naphthyridin-2-yl)pyridin-3-yl]oxy}-N1-(cyclohexylmethyl)propane-1,2-diamine]
61	–	COc1cc2ncc3c(N)nc(-c4cncc(OC[C@@H](N)CNC5CCCCC5)c4)cc3c2cc1OC [Ib-89, (2S)-3-{[5-(4-amino-8,9-dimethoxybenzo[c][2,7]naphthyridin-2-yl)pyridin-3-yl]oxy}-N1-cyclohexylpropane-1,2-diamine]
183	–	COc1cc2ncc3c(N)nc(-c4cncc(Nc5ccc(C(N)=O)cc5)c4)cc3c2cc1OC [Ib-206, 4-{[5-(4-amino-8,9-dimethoxybenzo[c][2,7]naphthyridin-2-yl)pyridin-3-yl]amino}benzamide]
80	–	COc1cc2ncc3c(NO)nc(-c4cncc(OC[C@@H](N)Cc5c[nH]c6ccccc56)c4)cc3c2cc1OC [Compound I-1, 2-(5-{[(2S)-2-amino-3-(1H-indol-3-yl)propyl]oxy}pyridin-3-yl)-N-hydroxy-8,9-dimethoxybenzo[c]-2,7-naphthyridin-4-amine]
4970	–	COc1cc2ncc3c(N)nc(N4CC[C@@H](N(C)C)C4)cc3c2cc1OC [Ib-66, 2-[(3R)-3-(dimethylamino)pyrrolidin-1-yl]-8,9-dimethoxybenzo[c]-2,7-naphthyridin-4-amine]
4	–	COc1cc2ncc3c(N)nc(-c4cncc(OC[C@@H](N)COc5ccc(Cl)cn5)c4)cc3c2cc1OC [Ib-154, 2-[5-({(2R)-2-amino-3-[(5-chloropyridin-2-yl)oxy]propyl}oxy)pyridin-3-yl]-8,9-dimethoxybenzo[c][2,7]naphthyridin-4-amine]
5	–	COc1cc2ncc3c(N)nc(-c4cncc(OC[C@@H](N)CN(C)c5cccc(F)c5)c4)cc3c2cc1OC [Ib-83, (2S)-3-{[5-(4-amino-8,9-dimethoxybenzo[c][2,7]naphthyridin-2-yl)pyridin-3-yl]oxy}-N1-(3-fluorophenyl)-N1-methylpropane-1,2-diamine]
6920	–	COc1cc2c(cc1OCC1CCN(C)CC1)ncc1c(N)nc(-c3ccncc3)cc12 [Ia-22, 9-Methoxy-8-[(1-methylpiperidin-4-yl)methoxy]-2-pyridin-4-ylbenzo[c]-2,7-naphthyridin-4-amine]
153	–	COc1cc2ncc3c(N)nc(-c4cncc(Oc5cccc(N)n5)c4)cc3c2cc1OC [Ib-171, 2-{5-[(6-Aminopyridin-2-yl)oxy]pyridin-3-yl}-8,9-dimethoxybenzo[c][2,7]naphthyridin-4-amine]
29	–	COc1cc2ncc3c(N)nc(-c4cncc(CCC(C)(C)N)c4)cc3c2cc1OC [Ib-257, 2-[5-(3-amino-3-methylbutyl)pyridin-3-yl]-8,9-dimethoxybenzo[c][2,7]naphthyridin-4-amine]
4610	–	COc1cc2ncc3c(N)nc(N4CC[C@@H](O)C4)cc3c2cc1OC [Ib-65, (3R)-1-(4-amino-8,9-dimethoxybenzo[c]-2,7-naphthyridin-2-yl)pyrrolidin-3-ol]
67	–	COc1cc2ncc3c(N)nc(-c4cncc(Nc5cccc(CO)c5)c4)cc3c2cc1OC [Ib-195, (3-{[5-(4-amino-8,9-dimethoxybenzo[c][2,7]naphthyridin-2-yl)pyridin-3-yl]amino}phenyl)methanol]
6	–	COc1cc2ncc3c(N)nc(-c4cncc(OC[C@@H](N)CNC(C)(C)c5cccnc5)c4)cc3c2cc1OC [Ib-93, (2S)-3-{[5-(4-amino-8,9-dimethoxybenzo[c][2,7]naphthyridin-2-yl)pyridin-3-yl]oxy}-N1-(1-methyl-1-pyridin-3-ylethyl)propane-1,2-diamine]
158	–	COc1cc2ncc3c(N)nc(-c4cncc(Nc5cccnc5)c4)cc3c2cc1OC [Ib-200, 8,9-dimethoxy-2-[5-(pyridin-3-ylamino)pyridin-3-yl]benzo[c][2,7]naphthyridin-4-Amine]
1000	–	COc1cc2ncc3c(N)nc(-c4cc(F)cc(C#N)c4)cc3c2cc1OC [Ib-241, 3-(4-amino-8,9-dimethoxybenzo[c][2,7]naphthyridin-2-yl)-5-fluorobenzonitrile]
50	–	COc1ccc(-c2cc3c(cnc4cc(OC)c(OC)cc43)c(N)n2)cn1 [Ib-237, 8,9-dimethoxy-2-(6-methoxypyridin-3-yl)benzo[c][2,7]naphthyridin-4-amine]
51	–	COc1cc2ncc3c(N)nc(-c4cncc(Nc5ccccc5-c5ccccc5)c4)cc3c2cc1OC [Ib-204, 2-[5-(biphenyl-2-ylamino)pyridin-3-yl]-8,9-dimethoxybenzo[c][2,7]naphthyridin-4-Amine]
5	–	COc1cc2ncc3c(N)nc(-c4cncc(OC[C@@H](N)CN(C)Cc5cccc(F)c5)c4)cc3c2cc1OC [Ib-8, (2S)-3-{[5-(4-amino-8,9-dimethoxybenzo[c]-2,7-naphthyridin-2-yl)pyridin-3-yl]oxy}-N1-(3-fluorobenzyl)-N1-methylpropane-1,2-diamine]
20	–	COc1cc2ncc3c(N)nc(-c4cncc(OC[C@@H](N)CNc5nccc(C)n5)c4)cc3c2cc1OC [Ib-113, (2S)-3-{[5-(4-amino-8,9-dimethoxybenzo[c][2,7]naphthyridin-2-yl)pyridin-3-yl]oxy}-N1-(4-methylpyrimidin-2-yl)propane-1,2-diamine]
74	–	COc1cc2ncc3c(N)nc(-c4cncc(Nc5ccccc5N5CCOCC5)c4)cc3c2cc1OC [Ib-184b, 8,9-dimethoxy-2-{5-[(2-morpholin-4-ylphenyl)amino]pyridin-3-yl}benzo[c][2,7]naphthyridin-4-amine]
2360	–	COCCOc1cc2ncc3c(N)nc(N4CCC[C@@H]4COC)cc3c2cc1OC [Ia-56, 9-methoxy-8-(2-methoxyethoxy)-2-[(2R)-2-(methoxymethyl)pyrrolidin-1-yl]benzo[c]-2,7-naphthyridin-4-amine]
10	–	COc1cc2ncc3c(N)nc(-c4cncc(OC[C@@H](N)COc5ccncc5)c4)cc3c2cc1OC [Ib-151, 2-(5-{[(2S)-2-amino-3-(pyridin-4-yloxy)propyl]oxy}pyridin-3-yl)-8,9-dimethoxybenzo[c][2,7]naphthyridin-4-amine]
–	183	COc1cc2ncc3c(N)nc(-c4cncc(Nc5ccccc5F)c4)cc3c2cc1OC [Ib-205, 2-{5-[(2-fluorophenyl)amino]pyridin-3-yl}-8,9-dimethoxybenzo[c][2,7]naphthyridin-4-amine]
